Measured values from ChEMBL document CHEMBL5303768, “Data for DCP probe TP-060” (2023).
Each block holds one compound with its values, some of them ahead of it. Active and inactive are the calls of the source. The rule behind the calls is not given here.

How the values were obtained:
[1] = biological target: T1, Ceramide glucosyltransferase (Homo sapiens, UniProt Q16739); assay: Human GCS enzymatic assay; type: functional
T1 sequence (Q16739 whole entry): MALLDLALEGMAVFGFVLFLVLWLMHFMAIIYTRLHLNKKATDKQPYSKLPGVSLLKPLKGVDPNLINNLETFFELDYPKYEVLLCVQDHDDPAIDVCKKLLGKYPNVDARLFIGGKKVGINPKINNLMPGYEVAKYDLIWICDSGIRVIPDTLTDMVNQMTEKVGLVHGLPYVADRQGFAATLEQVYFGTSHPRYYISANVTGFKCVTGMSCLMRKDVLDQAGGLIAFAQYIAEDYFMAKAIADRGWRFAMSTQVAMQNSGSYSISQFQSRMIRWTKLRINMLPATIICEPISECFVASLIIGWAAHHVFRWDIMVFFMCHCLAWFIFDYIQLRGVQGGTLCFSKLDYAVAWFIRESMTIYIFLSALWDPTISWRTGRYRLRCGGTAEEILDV

[2] = biological target: Ceramide glucosyltransferase (Mus musculus, UniProt O88693); assay: Mouse GCS enzymatic assay; type: functional
[3] = biological target: T1, Ceramide glucosyltransferase; assay: Cellular GlcCer reduction; type: functional, tissue-based, fibroblast
[4] = biological target: 3',5'-cyclic-AMP phosphodiesterase 4D (Homo sapiens, UniProt Q08499); assay: (§1) Safety47 Scan (DiscoverX - Eurofins)
[5] = biological target: 5-hydroxytryptamine receptor 1A (Homo sapiens, UniProt P08908); assay: as §1
[6] = biological target: 5-hydroxytryptamine receptor 1B (Homo sapiens, UniProt P28222); assay: as §1
5-hydroxytryptamine receptor 1B, sequence (P28222 whole entry): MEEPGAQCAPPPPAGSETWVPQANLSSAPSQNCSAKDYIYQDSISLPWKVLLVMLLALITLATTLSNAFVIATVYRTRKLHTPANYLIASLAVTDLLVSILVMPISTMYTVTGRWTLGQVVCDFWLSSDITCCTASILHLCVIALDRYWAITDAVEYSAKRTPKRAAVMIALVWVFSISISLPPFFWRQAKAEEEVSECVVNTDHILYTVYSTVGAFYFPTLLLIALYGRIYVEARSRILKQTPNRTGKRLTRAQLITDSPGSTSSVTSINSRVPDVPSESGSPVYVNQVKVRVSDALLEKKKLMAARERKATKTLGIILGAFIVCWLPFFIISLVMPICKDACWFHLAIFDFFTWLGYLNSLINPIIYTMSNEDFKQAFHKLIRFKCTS

[7] = biological target: 5-hydroxytryptamine receptor 2A (Homo sapiens, UniProt P28223); assay: as §1
[8] = biological target: 5-hydroxytryptamine receptor 2B (Homo sapiens, UniProt P41595); assay: as §1
[9] = biological target: 5-hydroxytryptamine receptor 3A (Homo sapiens, UniProt P46098); assay: as §1
Acetylcholinesterase = Acetylcholinesterase (Homo sapiens, UniProt P22303); assay: as §1
Adenosine receptor A2a = Adenosine receptor A2a (Homo sapiens, UniProt P29274); assay: as §1
[10] = biological target: Alpha-1A adrenergic receptor (Homo sapiens, UniProt P35348); assay: as §1
[11] = biological target: Alpha-2A adrenergic receptor (Homo sapiens, UniProt P08913); assay: as §1
[12] = biological target: Amine oxidase [flavin-containing] A (Rattus norvegicus, UniProt P21396); assay: as §1
Androgen receptor = Androgen receptor (Homo sapiens, UniProt P10275); assay: as §1
[13] = biological target: Beta-1 adrenergic receptor (Homo sapiens, UniProt P08588); assay: as §1
Beta-1 adrenergic receptor, sequence (P08588 whole entry): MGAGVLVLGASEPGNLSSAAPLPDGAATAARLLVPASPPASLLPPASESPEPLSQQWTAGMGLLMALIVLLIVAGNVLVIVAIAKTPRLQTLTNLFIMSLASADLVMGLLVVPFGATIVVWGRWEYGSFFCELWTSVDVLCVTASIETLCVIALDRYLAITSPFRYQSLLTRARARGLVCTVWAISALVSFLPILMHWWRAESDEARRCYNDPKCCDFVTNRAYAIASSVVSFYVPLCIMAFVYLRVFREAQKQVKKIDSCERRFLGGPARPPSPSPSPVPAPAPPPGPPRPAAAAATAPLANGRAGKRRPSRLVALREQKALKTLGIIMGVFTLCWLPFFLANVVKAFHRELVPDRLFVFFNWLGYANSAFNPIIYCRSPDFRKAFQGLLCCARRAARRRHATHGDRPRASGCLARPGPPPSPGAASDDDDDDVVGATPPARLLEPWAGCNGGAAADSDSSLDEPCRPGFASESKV

[14] = biological target: Beta-2 adrenergic receptor (Homo sapiens, UniProt P07550); assay: as §1
Cannabinoid receptor 1 = Cannabinoid receptor 1 (Homo sapiens, UniProt P21554); assay: as §1
Cannabinoid receptor 2 = Cannabinoid receptor 2 (Homo sapiens, UniProt P34972); assay: as §1
[15] = biological target: Cholecystokinin receptor type A (Homo sapiens, UniProt P32238); assay: as §1
D(1A) dopamine receptor = D(1A) dopamine receptor (Homo sapiens, UniProt P21728); assay: as §1
D(2) dopamine receptor = D(2) dopamine receptor (Homo sapiens, UniProt P14416); assay: as §1
D(2) dopamine receptor, sequence (P14416 whole entry): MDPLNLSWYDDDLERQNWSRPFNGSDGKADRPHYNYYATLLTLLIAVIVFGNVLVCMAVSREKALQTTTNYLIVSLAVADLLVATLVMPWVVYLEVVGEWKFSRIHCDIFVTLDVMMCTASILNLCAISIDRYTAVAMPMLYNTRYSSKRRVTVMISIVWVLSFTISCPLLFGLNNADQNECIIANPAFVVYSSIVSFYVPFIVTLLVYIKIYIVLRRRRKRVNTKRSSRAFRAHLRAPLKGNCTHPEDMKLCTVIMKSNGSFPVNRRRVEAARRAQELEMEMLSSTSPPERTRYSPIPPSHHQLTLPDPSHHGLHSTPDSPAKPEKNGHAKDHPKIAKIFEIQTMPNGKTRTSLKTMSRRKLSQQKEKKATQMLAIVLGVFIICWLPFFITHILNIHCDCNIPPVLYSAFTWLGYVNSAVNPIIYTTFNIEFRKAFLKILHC

[16] = biological target: Delta-type opioid receptor (Homo sapiens, UniProt P41143); assay: as §1
Delta-type opioid receptor, sequence (P41143 whole entry): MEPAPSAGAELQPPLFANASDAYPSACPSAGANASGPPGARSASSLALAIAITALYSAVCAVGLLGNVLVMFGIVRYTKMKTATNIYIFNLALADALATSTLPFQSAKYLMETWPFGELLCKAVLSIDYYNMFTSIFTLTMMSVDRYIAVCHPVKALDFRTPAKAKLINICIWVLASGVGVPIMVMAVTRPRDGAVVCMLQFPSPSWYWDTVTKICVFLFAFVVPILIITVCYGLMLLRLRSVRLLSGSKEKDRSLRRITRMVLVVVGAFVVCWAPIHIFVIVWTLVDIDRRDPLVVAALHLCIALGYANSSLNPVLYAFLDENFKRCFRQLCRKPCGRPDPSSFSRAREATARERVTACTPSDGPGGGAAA

Endothelin-1 receptor = Endothelin-1 receptor (Homo sapiens, UniProt P25101); assay: as §1
Endothelin-1 receptor, sequence (P25101 whole entry): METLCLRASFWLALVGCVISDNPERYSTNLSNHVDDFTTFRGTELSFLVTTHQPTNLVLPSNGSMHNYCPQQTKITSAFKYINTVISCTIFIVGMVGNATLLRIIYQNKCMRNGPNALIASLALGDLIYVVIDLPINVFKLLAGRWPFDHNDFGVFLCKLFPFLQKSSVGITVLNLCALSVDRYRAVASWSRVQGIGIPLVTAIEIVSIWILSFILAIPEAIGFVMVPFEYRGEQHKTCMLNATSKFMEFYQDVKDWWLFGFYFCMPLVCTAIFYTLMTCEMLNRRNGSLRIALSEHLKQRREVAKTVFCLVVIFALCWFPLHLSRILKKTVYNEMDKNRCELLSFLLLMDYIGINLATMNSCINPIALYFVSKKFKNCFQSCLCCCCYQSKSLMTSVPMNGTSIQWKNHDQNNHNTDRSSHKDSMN

Glucocorticoid receptor = Glucocorticoid receptor (Homo sapiens, UniProt P04150); assay: as §1
Histamine H1 receptor = Histamine H1 receptor (Homo sapiens, UniProt P35367); assay: as §1
Histamine H1 receptor, sequence (P35367 whole entry): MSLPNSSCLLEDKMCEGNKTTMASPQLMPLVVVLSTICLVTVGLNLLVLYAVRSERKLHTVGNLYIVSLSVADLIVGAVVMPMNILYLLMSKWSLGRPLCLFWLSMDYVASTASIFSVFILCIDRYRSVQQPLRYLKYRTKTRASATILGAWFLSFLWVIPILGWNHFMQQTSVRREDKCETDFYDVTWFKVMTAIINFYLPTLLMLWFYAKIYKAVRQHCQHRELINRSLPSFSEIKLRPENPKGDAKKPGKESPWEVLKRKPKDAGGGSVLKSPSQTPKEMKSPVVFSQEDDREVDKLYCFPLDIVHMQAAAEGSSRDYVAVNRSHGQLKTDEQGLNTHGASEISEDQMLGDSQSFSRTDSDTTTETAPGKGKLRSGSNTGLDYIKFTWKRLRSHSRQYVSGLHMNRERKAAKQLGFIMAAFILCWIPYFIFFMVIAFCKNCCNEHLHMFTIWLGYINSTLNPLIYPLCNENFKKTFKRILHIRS

Histamine H2 receptor = Histamine H2 receptor (Homo sapiens, UniProt P25021); assay: as §1
Insulin receptor = Insulin receptor (Homo sapiens, UniProt P06213); assay: as §1
[17] = biological target: Kappa-type opioid receptor (Homo sapiens, UniProt P41145); assay: as §1
Mu-type opioid receptor = Mu-type opioid receptor (Homo sapiens, UniProt P35372); assay: as §1
[18] = biological target: Muscarinic acetylcholine receptor M1 (Homo sapiens, UniProt P11229); assay: as §1
Muscarinic acetylcholine receptor M1, sequence (P11229 whole entry): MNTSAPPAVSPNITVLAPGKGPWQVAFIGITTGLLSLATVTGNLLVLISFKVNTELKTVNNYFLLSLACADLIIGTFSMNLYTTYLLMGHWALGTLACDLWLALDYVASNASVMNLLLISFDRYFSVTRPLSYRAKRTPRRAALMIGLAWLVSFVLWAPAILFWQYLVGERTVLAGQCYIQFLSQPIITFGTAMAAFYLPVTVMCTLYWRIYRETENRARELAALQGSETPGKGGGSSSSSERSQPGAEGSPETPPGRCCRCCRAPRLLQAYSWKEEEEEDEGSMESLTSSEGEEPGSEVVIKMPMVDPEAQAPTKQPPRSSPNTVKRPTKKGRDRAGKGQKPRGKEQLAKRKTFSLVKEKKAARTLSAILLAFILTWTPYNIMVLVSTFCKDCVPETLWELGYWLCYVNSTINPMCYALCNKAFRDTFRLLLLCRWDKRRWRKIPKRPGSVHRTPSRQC

[19] = biological target: Muscarinic acetylcholine receptor M2 (Homo sapiens, UniProt P08172); assay: as §1
[20] = biological target: Muscarinic acetylcholine receptor M3 (Homo sapiens, UniProt P20309); assay: as §1
[21] = biological target: Prostaglandin G/H synthase 1 (Homo sapiens, UniProt P23219); assay: as §1
[22] = biological target: Prostaglandin G/H synthase 2 (Homo sapiens, UniProt P35354); assay: as §1
[23] = biological target: Rho-associated protein kinase 1 (Homo sapiens, UniProt Q13464); assay: as §1
[24] = biological target: Sodium channel protein type 5 subunit alpha (Homo sapiens, UniProt Q14524); assay: as §1
[25] = biological target: Sodium-dependent dopamine transporter (Homo sapiens, UniProt Q01959); assay: as §1
[26] = biological target: Sodium-dependent noradrenaline transporter (Homo sapiens, UniProt P23975); assay: as §1
[27] = biological target: Tyrosine-protein kinase Lck (Homo sapiens, UniProt P06239); assay: as §1
[28] = biological target: Vascular endothelial growth factor receptor 2 (Homo sapiens, UniProt P35968); assay: as §1
Vasopressin V1a receptor = Vasopressin V1a receptor (Homo sapiens, UniProt P37288); assay: as §1
Vasopressin V1a receptor, sequence (P37288 whole entry): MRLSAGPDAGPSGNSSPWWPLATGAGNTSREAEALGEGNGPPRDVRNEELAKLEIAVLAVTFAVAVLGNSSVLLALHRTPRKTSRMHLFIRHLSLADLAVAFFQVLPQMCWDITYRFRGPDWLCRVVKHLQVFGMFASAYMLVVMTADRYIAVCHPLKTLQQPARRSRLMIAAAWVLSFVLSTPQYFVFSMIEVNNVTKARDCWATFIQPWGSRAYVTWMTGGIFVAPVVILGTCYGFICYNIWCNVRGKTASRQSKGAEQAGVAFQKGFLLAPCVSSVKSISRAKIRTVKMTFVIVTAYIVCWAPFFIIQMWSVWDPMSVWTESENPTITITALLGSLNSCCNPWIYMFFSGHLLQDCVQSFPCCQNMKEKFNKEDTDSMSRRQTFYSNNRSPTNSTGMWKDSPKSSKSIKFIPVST

[29] = biological target: Voltage-gated inwardly rectifying potassium channel KCNH2 (Homo sapiens, UniProt Q12809); assay: as §1
[30] = biological target: cGMP-inhibited 3',5'-cyclic phosphodiesterase 3A (Homo sapiens, UniProt Q14432); assay: as §1
[31] = as §1; design: species or system Rattus norvegicus
[32] = biological target: Voltage-dependent L-type calcium channel subunit alpha-1C (Homo sapiens, UniProt Q13936); assay: as §1; design: species or system Rattus norvegicus; conditions: target entry is the homologue from another species
[33] = biological target: Neuronal acetylcholine receptor; alpha4/beta2 (Homo sapiens, UniProt P17787+P43681); assay: as §1; type: protein-complex assay
[34] = biological target: Voltage-gated potassium channel, IKs; KCNQ1(Kv7.1)/KCNE1(MinK) (Homo sapiens, UniProt P15382+P51787); assay: as §1; type: protein-complex assay
[35] = biological target: Glutamate NMDA receptor; GRIN1/GRIN2B (Homo sapiens, UniProt Q05586+Q13224); assay: as §1; type: protein-complex assay, Rattus norvegicus; conditions: target entry is the homologue from another species
Glutamate NMDA receptor; GRIN1/GRIN2B, sequence (Q13224 whole entry, other chains not shown): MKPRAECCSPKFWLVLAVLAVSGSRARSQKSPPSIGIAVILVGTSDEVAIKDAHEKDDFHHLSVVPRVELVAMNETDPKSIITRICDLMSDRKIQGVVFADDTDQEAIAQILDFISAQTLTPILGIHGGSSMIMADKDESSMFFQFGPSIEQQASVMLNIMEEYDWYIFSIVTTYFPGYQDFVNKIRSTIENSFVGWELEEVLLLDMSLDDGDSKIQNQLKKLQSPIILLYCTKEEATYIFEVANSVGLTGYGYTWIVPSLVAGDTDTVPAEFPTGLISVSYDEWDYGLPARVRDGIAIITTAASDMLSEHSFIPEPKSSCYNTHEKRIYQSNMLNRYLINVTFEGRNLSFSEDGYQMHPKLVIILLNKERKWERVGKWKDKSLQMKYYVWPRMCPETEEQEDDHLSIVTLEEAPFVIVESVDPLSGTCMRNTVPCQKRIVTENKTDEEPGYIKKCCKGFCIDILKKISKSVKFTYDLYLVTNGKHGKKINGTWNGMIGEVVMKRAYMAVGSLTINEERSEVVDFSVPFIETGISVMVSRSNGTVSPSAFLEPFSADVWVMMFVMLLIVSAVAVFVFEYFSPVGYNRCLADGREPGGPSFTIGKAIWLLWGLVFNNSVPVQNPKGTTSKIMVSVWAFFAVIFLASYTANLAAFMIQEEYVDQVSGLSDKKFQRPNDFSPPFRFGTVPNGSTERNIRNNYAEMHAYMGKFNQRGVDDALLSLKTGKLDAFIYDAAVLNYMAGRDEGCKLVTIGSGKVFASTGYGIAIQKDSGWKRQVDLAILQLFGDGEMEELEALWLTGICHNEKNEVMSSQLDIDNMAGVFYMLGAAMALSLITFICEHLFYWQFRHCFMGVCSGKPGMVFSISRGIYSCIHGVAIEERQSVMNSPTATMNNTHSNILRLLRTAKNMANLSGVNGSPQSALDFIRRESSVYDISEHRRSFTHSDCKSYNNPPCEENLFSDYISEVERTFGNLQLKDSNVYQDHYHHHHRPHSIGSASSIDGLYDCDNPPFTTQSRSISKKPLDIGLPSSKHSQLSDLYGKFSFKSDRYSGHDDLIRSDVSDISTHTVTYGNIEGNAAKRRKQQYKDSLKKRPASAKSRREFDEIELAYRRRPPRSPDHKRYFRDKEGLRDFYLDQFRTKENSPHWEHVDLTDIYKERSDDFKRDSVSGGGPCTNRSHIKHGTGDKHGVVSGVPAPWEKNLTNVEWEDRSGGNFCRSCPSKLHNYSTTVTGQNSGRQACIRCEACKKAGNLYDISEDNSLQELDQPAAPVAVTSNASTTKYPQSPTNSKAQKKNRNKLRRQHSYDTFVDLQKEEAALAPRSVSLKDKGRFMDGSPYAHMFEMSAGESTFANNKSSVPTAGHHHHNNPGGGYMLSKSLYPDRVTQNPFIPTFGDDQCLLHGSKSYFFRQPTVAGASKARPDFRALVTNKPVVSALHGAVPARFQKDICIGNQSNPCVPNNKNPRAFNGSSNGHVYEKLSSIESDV

IC50 [1]: > 100 µM (not active)
IC50 [2]: > 100 µM (not active)
EC50 [3]: > 10 µM (not active)
SMILES: COc1cccc(-c2nccc3c2CN(c2ccccc2)C3=O)c1

SMILES: CC(C)(O)c1ccc(N2Cc3c(ccnc3-c3ccc(F)cc3OCC(F)(F)F)C2=O)cc1
EC50 [3]: 0.0076 µM (active)
IC50 [4]: > 10 µM
EC50 [5]: > 10 µM
IC50 [5]: > 10 µM
EC50 [6]: 2.8 µM
IC50 [6]: > 10 µM
EC50 [7]: > 10 µM
IC50 [7]: > 10 µM
EC50 [8]: > 10 µM
IC50 [8]: > 10 µM
EC50 [9]: > 10 µM
IC50 [9]: > 10 µM
IC50 (Acetylcholinesterase): > 10 µM
EC50 (Adenosine receptor A2a): > 10 µM
IC50 (Adenosine receptor A2a): > 10 µM
EC50 [10]: > 10 µM
IC50 [10]: > 10 µM
EC50 [11]: > 10 µM
IC50 [11]: > 10 µM
IC50 [12]: > 10 µM
EC50 (Androgen receptor): > 10 µM
IC50 (Androgen receptor): > 10 µM
EC50 [13]: > 10 µM
IC50 [13]: > 10 µM
EC50 [14]: > 10 µM
IC50 [14]: > 10 µM
EC50 (Cannabinoid receptor 1): > 10 µM
IC50 (Cannabinoid receptor 1): > 10 µM
EC50 (Cannabinoid receptor 2): > 10 µM
IC50 (Cannabinoid receptor 2): > 10 µM
EC50 [15]: > 10 µM
IC50 [15]: > 10 µM
EC50 (D(1A) dopamine receptor): > 10 µM
IC50 (D(1A) dopamine receptor): > 10 µM
EC50 (D(2) dopamine receptor): > 10 µM
IC50 (D(2) dopamine receptor): > 10 µM
EC50 [16]: > 10 µM
IC50 [16]: > 10 µM
EC50 (Endothelin-1 receptor): > 10 µM
IC50 (Endothelin-1 receptor): > 10 µM
EC50 (Glucocorticoid receptor): > 10 µM
IC50 (Glucocorticoid receptor): > 10 µM
EC50 (Histamine H1 receptor): > 10 µM
IC50 (Histamine H1 receptor): > 10 µM
EC50 (Histamine H2 receptor): > 10 µM
IC50 (Histamine H2 receptor): > 10 µM
IC50 (Insulin receptor): > 10 µM
EC50 [17]: > 10 µM
IC50 [17]: > 10 µM
EC50 (Mu-type opioid receptor): > 10 µM
IC50 (Mu-type opioid receptor): > 10 µM
EC50 [18]: > 10 µM
IC50 [18]: > 10 µM
EC50 [19]: > 10 µM
IC50 [19]: > 10 µM
EC50 [20]: > 10 µM
IC50 [20]: > 10 µM
IC50 [21]: > 10 µM
IC50 [22]: > 10 µM
IC50 [23]: > 10 µM
IC50 [24]: > 10 µM
IC50 [25]: > 10 µM
IC50 [26]: > 10 µM
IC50 [27]: > 10 µM
IC50 [28]: > 10 µM
EC50 (Vasopressin V1a receptor): > 10 µM
IC50 (Vasopressin V1a receptor): > 10 µM
IC50 [29]: > 10 µM
IC50 [30]: > 10 µM
EC50 [31]: > 10 µM
IC50 [31]: > 10 µM
IC50 [32]: > 10 µM
EC50 [33]: > 10 µM
IC50 [33]: 6.5 µM
EC50 [34]: > 10 µM
IC50 [34]: > 10 µM
EC50 [35]: > 10 µM
IC50 [35]: > 10 µM
